{
  "source": "patent US20260023068A1",
  "about": "“USE OF A FBXO42 SPECIFIC INHIBITOR IN TREATING NOTCH SIGNALING-DEPENDENT DISEASE” (WESTLAKE UNIVERSITY, priority 2022, published 2026)",
  "key": {"JURKAT and HSB2 cells [1]": {"test_system": "JURKAT and HSB2 cells", "test": "Cell viability, cell counting kit-8 assay", "type": "cell-based, human", "conditions": "JURKAT and HSB2, concentration gradient, 36 h, CCK-8 (FIG. 12L)", "method": "(§1) FBXO42-KO cells were rescued with WT FBXO42 or F-box deletion mutant and were used in the following studies. (A-C) The mRNA levels of Notch target genes in the treated HEK293T (A), JURKAT (B) and HSB2 (C) cells were determined by qPCR. (D-G) The invasion abilities of the treated JURKAT (D) and HSB2 (F) cells were evaluated using a 3D culture system with Matrigel. Scale bars, 50 μm. The respective average diameter of the spheres in D and F was summarized, respectively (E and G). (H-K) Anchorage-independent growth of the rescued JURKAT (H) and HSB2 (J) cells was measured using a soft agar colony formation assay. The number of colonies in H and J was counted and summarized, respectively (I and K). (L) JURKAT and HSB2 cells were treated with MLN4924 in a concentration-gradient manner for 36 h and then evaluated for the cell viability using cell counting kit-8 assay. (M and N) The expression of Notch target genes in MLN4924-treated JURKAT (M) and HSB2 (N) cells were determined by qPCR. (O-R) Anchorage-independent growth of MLN4924-treated JURKAT (0) and HSB2 (Q) cells was measured using soft agar colony formation assays. The number of colonies was counted and summarized (P and R). (A-R, n=3) The data are shown as the mean±SEM from the independent experiments. P values were calculated using one-way ANOVA for multiple comparisons or two-tailed Student's t-tests. *P<0.05, ** P<0.01, *** P<0.001."}, "JURKAT and HSB2 cells [2]": {"test_system": "JURKAT and HSB2 cells", "test": "Soft agar colony formation assay (anchorage-independent growth)", "type": "cell-based, human", "conditions": "JURKAT and HSB2, soft agar colony formation (FIG. 12O-R)", "method": "as §1"}, "JURKAT xenograft": {"test_system": "JURKAT xenograft", "type": "in vivo", "conditions": "30 mg/kg subcutaneously twice daily for 21 days, BALB/c nude mice (FIG. 13S-V)", "method": "(A-H) Xenograft tumor growth studies were performed with WT or FBXO42-KO JURKAT (A-D) and HSB2 (E-H) cells. Mice were euthanized 4 weeks after tumor cell injection. The tumors were excised, photographed, and weighed. The volumes (B and F) and weights (C and G) of the tumors were measured, respectively. The mRNA levels of Notch target genes in tumors were determined by qPCR, respectively (D and H). (I-K) In vivo leukemia mouse model was established by injecting WT and FBXO42-KO JURKAT cells carrying GFP into NSG mice intravenously. The percentage of GFP^+ leukemia cells in peripheral blood was measured weekly by flow cytometry analysis (I) and summarized (K). […] (L-O) Spleens in mice from different groups were excised, a representative image is shown (L), and the spleen weight was measured (M). Tumor cell invasion was evaluated by measuring GFP intensity by fluorescence microscopy (N) and hemoxylin and eosin staining (O). […] The volumes (S) and weights (T) of the tumors and mouse weight (U) were measured. (A-O, S-V, n=5, P-R, n=10) Quantitative data are presented as mean±SEM. P values were calculated using two-tailed Student's t-tests. *P<0.05, **P<0.01, NS, not significant.\nFor the evaluation of MLN4924 efficacy in vivo, 6- to 8-week-old female BALB/c nude mice were inoculated with 5×10^6 JURKAT cells subcutaneously in the right flank, and tumor growth was monitored with caliper measurements. […]"}, "[3]": {"test_system": "Notch target genes in JURKAT and HSB2 cells", "test": "qPCR of Notch target genes in leukemia cells", "type": "cell-based, human", "conditions": "JURKAT and HSB2, qPCR (FIGS. 12M and 12N)", "method": "as §1, with “P<0.001. […]” for “P<0.001.”"}, "[4]": {"test_system": "global protein ubiquitination", "test": "Global mass spectrometry-based analysis of protein ubiquitination", "type": "cell-based", "conditions": "global ubiquitination changes upon MLN4924 treatment (FIGS. 5E and 5F)", "method": "(A) Endogenous RBPJ ubiquitination was measured under FBXO42 overexpression after immunoprecipitation with antibody against RBPJ and immunoblotted for Ub. Five percent lysate was used as the input control. (B) cSFB-RBPJ, hemagglutinin-ubiquitin (HA-Ub) and Myc-FBXO42 WT or AK mutant were cotransfected into HEK293T cells as indicated and treated with MG132 for 4 h. The cell lysates were incubated with S beads and analyzed by western blotting for RBPJ polyubiquitination detection. (C) Peptide sequence with ubiquitination modification identified in WT and FBXO42 KO cells. (D) HEK293T cells were cotransfected with Myc-FBXO42, HA-Ub WT along with cSFB-RBPJ WT or its lysine mutants as indicated. The cell lysates were incubated with S beads and analyzed by western blotting for RBPJ polyubiquitination detection. (E) Summary of identified peptides in global ubiquitination analysis upon MLN4924 treatment or FBXO42 depletion. (F) Percentage of ubiquitinated peptides among different groups. (G and H) Gene Ontology analysis of these proteins with differential ubiquitination modification. (I and J) Venn diagram showing the overlap between identified differential proteins with reported Notch interactors.\nGlobal protein ubiquitination analysis was performed according to the manufacture's guidance (5562, CST). […]"}, "[5]": {"test_system": "Notch target genes HES1, HES5 and c-MYC", "test": "qPCR of Notch target genes in HEK293T cells", "type": "cell-based, human", "conditions": "mRNA, qPCR (FIG. 4O)"}},
  "data": [
    {"smiles": "NS(=O)(=O)OC[C@@H]1C[C@@H](n2ccc3c(N[C@H]4CCc5ccccc54)ncnc32)C[C@@H]1O", "note": "[MLN4924]", "values": [
      {"measurement": "cell viability of leukemia cells", "setting": "JURKAT and HSB2 cells [1]", "result": "diminished"},
      {"measurement": "anchorage-independent growth of leukemia cells", "setting": "JURKAT and HSB2 cells [2]", "result": "diminished"},
      {"measurement": "leukemia burden in vivo (tumor growth rate)", "setting": "JURKAT xenograft", "result": "reduced"},
      {"measurement": "Notch target gene expression of leukemia cells", "setting": "[3]", "result": "diminished"},
      {"measurement": "percentage of ubiquitinated peptides", "setting": "[4]", "result": "decreased"},
      {"measurement": "expression of Notch target genes HES1, HES5 and c-MYC", "setting": "[5]", "result": "suppressed"}
    ]}
  ]
}
